Laboratory results reported in the supplement of paper PMC10307832.

Columns and labels:
Test in all cases: relative viability (nuclei count vs DMSO), 5 days (fraction); higher = more cells survive
Carfilzomib = compound: CC(C)C[C@H](NC(=O)[C@H](CCc1ccccc1)NC(=O)CN1CCOCC1)C(=O)N[C@@H](Cc1ccccc1)C(=O)N[C@@H](CC(C)C)C(=O)[C@@]1(C)CO1 [Carfilzomib]
Summary of the method: (§1)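 Cells of lung cancer lines were placed in 1536-well plates and kept overnight at 37 °C. Pinning then delivered five library-drug doses (not always all listed), spaced by √10, onto plates anchored with vehicle, and the cells were left 5 days without changing medium. One step fixed, permeabilised and stained them with Hoechst, and MetaXpress counted nuclei in 4× images. Viability, as a median over plates, is treated-well nuclei divided by vehicle-well nuclei, with acceptance only at control CV below 25% and at least one doubling.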

Crizotinib = compound: C[C@@H](Oc1cc(-c2cnn(C3CCNCC3)c2)cnc1N)c1c(Cl)ccc(F)c1Cl [Crizotinib]
Summary of the method: as §1

Olaparib = compound: O=C(c1cc(Cc2n[nH]c(=O)c3ccccc23)ccc1F)N1CCN(C(=O)C2CC2)CC1 [Olaparib]
Summary of the method: as §1

Cell Line | relative viability (Carfilzomib; 0.001 µM) | relative viability (Carfilzomib; 0.003162 µM) | relative viability (Carfilzomib; 0.01 µM) | relative viability (Carfilzomib; 0.03162 µM) | relative viability (Carfilzomib; 0.1 µM) | relative viability (Crizotinib; 0.01 µM) | relative viability (Crizotinib; 0.03162 µM) | relative viability (Crizotinib; 0.1 µM) | relative viability (Crizotinib; 0.3162 µM) | relative viability (Crizotinib; 1 µM) | relative viability (Crizotinib; 1 µM, anchor plate) | relative viability (Olaparib; 0.08 µM) | relative viability (Olaparib; 0.253 µM) | relative viability (Olaparib; 2.53 µM) | relative viability (Olaparib; 8 µM) | relative viability (Olaparib; 8 µM, anchor plate)
NCI-H1355 | 0.876 | 1.04 | 1.01 | 0.946 | 0.18 | 0.983 | 1.01 | 1.05 | 0.797 | 0.981 | 1.05 | 1.02 | 0.962 | 0.981 | 0.91 | 0.754
NCI-H1395 | 0.764 | 1.08 | 0.669 | 0.437 | 0.34 | 0.819 | 0.943 | 1.05 | 0.811 | 0.739 |  | 1.01 | 0.806 | 0.663 | 0.538 | 0.479
NCI-H1437 | 0.952 | 1.07 | 1.04 | 0.884 | 0.358 | 0.951 | 1.03 | 0.996 | 0.884 | 1.08 |  | 1.02 | 0.873 | 0.927 | 0.814 | 0.617
NCI-H1563 | 0.945 | 1.08 | 1.03 | 0.934 | 0.613 | 0.887 | 0.995 | 0.908 | 1 | 1.06 | 0.843 | 1.16 | 0.902 | 1.01 | 0.912 | 
NCI-H1623 | 0.972 | 1.12 | 1.04 | 0.885 | 0.33 | 0.891 | 1.01 | 0.915 | 0.89 | 0.891 |  | 1.07 | 0.987 | 0.917 | 0.791 | 
NCI-H1648 | 0.845 | 1.11 | 1.14 | 0.725 | 0.416 | 0.742 | 1.33 | 0.651 | 0.958 | 1.1 |  | 0.956 | 0.908 |  | 1.2 | 0.818
NCI-H1650 | 0.986 | 0.975 | 0.341 | 0.141 | 0.186 | 0.842 | 0.993 | 0.969 | 0.891 | 0.931 | 1.02 | 1.21 | 0.848 | 0.785 | 0.871 | 0.812
NCI-H1651 | 0.964 | 1.01 | 0.879 | 0.327 | 0.12 | 0.954 | 0.994 | 0.938 | 0.991 | 1.08 | 0.884 | 0.934 | 0.902 | 0.755 | 0.494 | 0.188
NCI-H1666 | 1.02 | 1.07 | 1.06 | 0.981 | 0.437 | 0.952 | 1.02 | 0.985 | 0.971 | 0.987 | 1.04 | 0.985 | 0.916 | 0.821 | 0.838 | 0.738
NCI-H1703 | 0.839 | 1.22 | 0.439 | 0.132 | 0.128 | 0.794 | 1.08 | 0.918 | 0.968 | 1.14 | 0.728 | 1.1 | 0.826 | 0.983 | 0.974 | 0.453
NCI-H1734 | 0.972 | 1.04 | 0.904 | 0.354 | 0.124 | 0.913 |  | 0.886 |  | 0.955 | 0.672 | 1.06 | 0.935 | 0.862 | 0.726 | 0.635
NCI-H1755 | 1.01 | 1.02 | 1 | 1.01 | 0.788 | 0.943 | 0.987 |  | 0.944 | 1 | 0.863 | 1.08 | 0.89 | 1.05 | 0.939 | 0.881
NCI-H1792 | 0.827 | 0.962 | 0.957 | 0.658 | 0.388 | 0.886 | 1.01 | 1.09 |  | 0.909 | 0.997 | 0.923 | 0.725 | 0.773 | 0.605 | 0.419
NCI-H1915 | 0.954 | 1.08 | 0.871 | 1 | 0.184 |  | 0.99 | 1.02 |  | 1.02 | 0.908 | 1.02 | 0.892 | 0.779 | 0.559 | 0.269
NCI-H1944 | 0.907 | 1.03 | 0.927 | 1 | 0.343 | 0.879 | 0.992 | 0.907 | 1.02 | 0.893 | 1.1 | 0.921 | 0.806 | 0.656 | 0.646 | 0.419
NCI-H1975 | 0.946 | 1.05 | 0.808 | 0.146 | 0.137 | 0.884 | 0.992 | 0.967 | 0.921 | 1.02 | 0.979 | 0.985 | 0.919 | 0.912 | 0.901 | 0.789
NCI-H1993 | 0.943 | 0.999 | 1.01 | 0.818 | 0.426 | 0.859 | 0.978 | 0.807 | 0.798 | 0.753 | 0.872 | 0.909 | 0.956 | 0.978 | 1.01 | 1.12
NCI-H2009 | 1.07 | 1.05 | 1.02 | 0.44 | 0.0846 | 0.953 | 1 | 1.05 | 0.986 | 1 | 1.04 | 1.07 | 0.959 | 0.94 | 0.9 | 0.679

Cell Line | relative viability (Carfilzomib; 0.001 µM) | relative viability (Carfilzomib; 0.003162 µM) | relative viability (Carfilzomib; 0.01 µM) | relative viability (Carfilzomib; 0.03162 µM) | relative viability (Carfilzomib; 0.1 µM) | relative viability (Crizotinib; 0.01 µM) | relative viability (Crizotinib; 0.03162 µM) | relative viability (Crizotinib; 0.1 µM) | relative viability (Crizotinib; 0.3162 µM) | relative viability (Crizotinib; 1 µM) | relative viability (Crizotinib; 1 µM, anchor plate) | relative viability (Olaparib; 0.08 µM) | relative viability (Olaparib; 0.253 µM) | relative viability (Olaparib; 2.53 µM) | relative viability (Olaparib; 8 µM) | relative viability (Olaparib; 8 µM, anchor plate)
NCI-H2023 | 1.01 | 0.965 | 0.944 | 0.436 | 0.0808 | 0.85 | 0.982 | 0.974 | 0.761 | 0.734 | 0.676 | 0.98 | 0.944 | 0.901 | 0.685 | 0.478
NCI-H2085 | 1.02 | 1.03 | 0.962 | 0.547 | 0.323 | 0.936 | 1.03 | 0.977 | 1 | 0.975 | 0.882 | 1.16 | 0.912 | 0.983 | 0.959 | 0.769
NCI-H2087 | 0.989 | 1.06 | 0.586 | 0.0747 | 0.0676 | 0.871 | 0.982 | 1.22 | 0.788 | 1.03 | 0.811 | 1.31 | 0.929 | 0.944 | 0.662 | 0.601
NCI-H2126 | 0.994 | 1.07 | 1.03 | 0.93 | 0.568 | 0.934 | 1.02 | 0.959 | 0.914 | 0.993 |  | 1.07 | 0.984 | 0.982 | 1.01 | 0.907
NCI-H2170 | 0.931 | 0.99 | 1.07 | 0.969 | 0.443 |  | 0.985 | 0.977 | 0.928 | 1.01 | 1.2 | 0.973 | 0.875 | 0.971 | 0.915 | 0.599
NCI-H2228 | 0.975 | 1.15 | 0.905 | 0.157 | 0.101 | 1.16 | 1.04 | 1 | 0.679 | 0.585 | 0.482 | 1.12 | 0.845 | 0.777 | 0.609 | 0.719
NCI-H2342 | 0.975 | 0.957 | 1.06 | 0.968 | 0.825 | 0.891 | 0.999 |  | 0.867 | 0.882 |  | 0.974 | 0.951 | 0.936 | 0.941 | 0.452
NCI-H2347 | 0.971 | 1.08 | 1.03 | 0.511 | 0.393 | 0.965 | 0.974 | 1.07 | 0.973 | 1.06 | 0.73 | 1.09 | 0.877 | 0.877 | 0.765 | 0.583
NCI-H2405 | 0.704 | 1.15 | 1.1 | 0.8 | 0.277 | 1.01 | 0.977 | 0.909 | 0.949 | 0.973 | 0.789 | 1.09 | 0.884 | 0.945 | 1.02 | 0.853
NCI-H3122 | 1.03 | 1.05 | 1.03 | 0.978 | 0.455 | 0.944 | 0.988 | 1.02 | 0.864 | 0.798 | 0.275 | 1 | 0.966 | 0.946 | 0.865 | 0.607
PC-3 [JPC-3] | 1 | 1.07 | 1.09 | 0.896 | 0.39 | 0.978 | 1.04 | 1.15 | 0.992 | 0.961 | 0.97 | 1.06 | 0.907 | 1.12 | 0.989 | 1.1
PC-14 | 1.03 | 1.13 | 1.06 | 0.29 | 0.0816 | 0.92 | 1.01 | 1.02 | 0.963 | 0.986 |  | 1.14 | 0.849 | 0.954 | 0.682 | 0.285
RERF-LC-KJ | 0.923 | 1.03 | 1.05 | 0.683 | 0.259 | 0.944 | 1.06 | 1.02 | 0.927 | 1.05 | 0.819 | 1.06 | 0.943 | 0.947 | 0.971 | 0.89
SK-LU-1 | 0.968 | 1.22 | 1 | 0.249 | 0.187 | 1.06 | 1.07 | 1.02 | 1.05 | 1.08 | 0.852 | 1.13 | 0.906 | 0.926 | 0.735 | 0.44
SK-MES-1 | 0.987 | 1.05 | 1.06 | 0.782 | 0.186 | 0.951 | 0.999 | 1.02 | 0.97 | 0.967 | 0.991 | 1.09 | 0.892 | 0.96 | 0.776 | 0.731
SW 900 | 0.747 | 0.883 | 0.288 | 0.161 | 0.192 | 0.811 | 0.97 | 0.93 | 0.787 | 0.952 |  | 0.879 | 0.855 | 0.715 | 0.716 | 0.905
SW 1573 | 0.957 | 1.18 | 0.77 | 0.173 | 0.0655 | 0.941 | 0.999 | 0.917 | 0.885 | 0.974 | 0.793 | 1.1 | 0.896 | 0.825 | 0.633 | 0.512
UMC-11 | 0.947 | 1.03 | 0.987 | 0.854 | 0.578 | 0.898 | 0.972 | 0.91 | 0.636 | 1.01 | 0.606 | 1.03 | 0.894 | 0.758 | 0.492 | 0.373
